Laboratory results published in patent US20260284051A1, “METHIONINE ADENOSYLTRANSFERASE 2A (MAT2A) INHIBITOR COMBINATIONS AND USES THEREOF” (INSILICO MEDICINE IP LIMITED, priority 2023, published 2026).

Assays:
KP4 MTAP null xenografts = test: Efficacy study of KP-4 human pancreatic cancer xenograft model in NOD SCID mice; type: in vivo; settings: for Tumor volume (mm^3) Final (mean): Mean ± SD
Protocol: Efficacy Study of KP-4 Human Pancreatic Cancer Xenograft Model in NOD SCID Mice
The KP-4 tumor cell line was maintained in vitro as monolayer culture in RPMI 1640 medium supplemented with 10% fetal bovine serum at 37° C. in an atmosphere of […] in air. The tumor cells were routinely subculture weekly by trypsin-EDTA treatment, not to exceed 4-5 passages. The cells growing in an exponential growth phase was harvested and counted for tumor inoculation.
Each mouse was inoculated subcutaneously on the central right flank with KP-4 tumor cells (1×10^7) in 0.1 mL of RPMI-1640 without serum for the tumor development. The treatment started when the mean tumor size reached approximately 100 mm^3. Mice were assigned to groups such that the mean tumor volume is the same for each treatment group and time point.
For routine monitoring, all study animals were monitored for not only tumor growth but also behavior such as mobility, food, and water consumption (by cage side checking only), body weight (BW), eye/hair matting and any other abnormal effect. Any mortality and/or abnormal clinical signs were recorded.
Body weights of all animals were measured twice a week throughout the study. Body weight change, expressed in %, will be calculated using the following formula: BW change (%)=(BWDay x/BWDay 0)×100, where BWDay x is BW on a given day, and BWDay 0 is BW on Day 0 (initiation of treatment).
The measurement of tumor size were conducted twice a week with a caliper and the tumor volume (mm^3) was estimated using the formula: TV=a×b^2/2, where a and b are long and short diameters of a tumor, respectively. The TVs were used for calculation of the tumor growth inhibition (TGI, an indicator of antitumor effectiveness) value using the formula: TGI (%)=[1−(Tn−T0)/(Cn−C0)]×100%, only over the dosing period (dosing days 0 to days n). Where: Tn—is the avg tumor volume at the respective day “n” after dosing throughout treatment period; T0—is the avg tumor volume in the treatment group at day 0 before treatment (immediately before); Cn—avg tumor volume in the control group at the respective day “n” after dosing throughout treatment period; and C0—average tumor volume in the control group at day 0 before treatment (immediately before). The experiment was terminated when the mean tumor volume exceeded 2000 mm^3 or severe body weight loss.
The statistical software GraphPad Prism (version number: 8) was used to analyze the difference in tumor volume between the treatment group and the solvent control group. Two-way ANOVA and Bonferroni multiple tests were used to compare whether there was a significant difference in tumor volume between the vehicle control group and each treatment group during the administration period.
(§1) Mean tumor volume at dosing start was approximately 102 mm^3, with ten mice randomized to each treatment group. In the KP4 MTAP null tumor model, mice were dosed orally, once per day (QD) with Vehicle, once per day (QD) with Compound 1 at 1, 3 mg/kg, once per day (QD) with AG270 at 100 mg/kg, mice were intravenous, per week with Docetaxel at 2.5 mg/kg, or Compound 1 combined with Docetaxel at each dose level.

[1] = tested on: HCC15 MTAP null xenografts; test: Efficacy study of HCC15 human lung cancer xenograft model in NOD SCID mice; type: in vivo; settings: for Tumor volume (mm^3) Final (mean): Mean ± SD
Protocol: Efficacy Study of HCC15 Human Lung Cancer Xenograft Model in NOD SCID Mice Methods:
The HCC15 cells were maintained in vitro as a monolayer culture in 90% 1640+10% FBS, 100U/ml penicillin and 100 μg/ml streptomycin at 37° C. in an atmosphere of 5% CO2 in air. The tumor cells were routinely subcultured at a ratio of 1:2 to 1:3 every 3-4 days. Alternatively, Cultures were maintained by addition or replacement of fresh medium. Started cultures at 5×10^5 cells/mL and maintained between 0.5×10^5 and 2×10^6 cells/ml.
NOD SCID mice, female, 6-8 weeks, weighing approximately 20-22 g.
Each mouse were inoculated subcutaneously at the right flank with HCC15 cells in a 0.2 mL mixture of 1640 for tumor development (5×10^6 cells/mouse). Dosing was started when the average tumor size reaches approximately 100-200 mm^3 for the tumor efficacy study with tool and med chem molecules to look for efficacy vs vehicle tumor growth.
as §1, with “133.09” for “102”, “HCC15” for “KP4”, “at” for “at 1,”

[2] = Docetaxel 2.5 mg/kg intravenous per week

## CC(=O)O[C@@]12CO[C@@H]1C[C@H](O)[C@@]1(C)C(=O)[C@H](O)C3=C(C)[C@@H](OC(=O)[C@H](O)[C@@H](NC(=O)OC(C)(C)C)c4ccccc4)C[C@@](O)([C@@H](OC(=O)c4ccccc4)[C@H]21)C3(C)C [Docetaxel, docetaxel, reference compound]
KP4 MTAP null xenografts; [2]
  TGI (%): 51.6%
  Tumor volume (mm^3) Final (mean): 1,159 ± 129 mm^3
[1]; [2]
  TGI (%): 58.5%
  Tumor volume (mm^3) Final (mean): 515 ± 36 mm^3

## AG270 [reference compound]
KP4 MTAP null xenografts; AG270 100 mg/kg orally QD
  TGI (%): 55.7%
  Tumor volume (mm^3) Final (mean): 1,070 ± 132 mm^3
[1]; AG270 100 mg/kg orally QD, 100 mg/kg
  TGI (%): 55.3%
[1]; AG270 100 mg/kg orally QD
  Tumor volume (mm^3) Final (mean): 544 ± 30 mm^3
